≈ marks a conversion by molar mass, not a printed value.
How the values were obtained:
UcpA = target: T1, UcpA (Escherichia coli, UniProt P37440, T153Q); assay type: biochemical; settings: lysates of induced LY180 (pLOI4856) vs empty vector control, appropriate cofactors
T1 construct: made in house; host or cells: E. coli LY180 (pLOI4856), IPTG-induced; clarified cell lysate, not purified
Experimental: Cultures were grown overnight to a cell density of approximately 0.66 mg dcw ml^−1 (37° C.) in closed tubes containing 20 ml AM1 (50 g liter^−1 xylose, 0.1 mM IPTG and 12.5 mg liter^−1 ampicillin). Cells were harvested by centrifugation (7,000 g for 5 min, 4° C.), washed twice with 10 ml of cold sodium phosphate buffer (50 mM pH 7.0), resuspended to a cell density of 4.4 mg dcw ml^−1, and disrupted in buffer containing 1 mM dithiothreitol using a Fastprep-24 (MP Biomedicals, Solon, Ohio). After clarification at 13,000 g (10 min, 4° C.), protein concentration was determined using a BCA™ Protein Assay Kit (Thermo Scientific, Rockford, Ill.). Furfural-dependent reduction was measured using NADH and NADPH by monitoring the decrease in absorbance at 340 nm (extinction coefficient of NADH of 6,220 M^−1 cm^−1; extinction coefficient of NADPH of […]). Reaction mixtures contained 200 mM phosphate buffer (pH 7.0), 10 mM furfural, and 0.2 mM NADH or NADPH. NADH-dependent and NADPH-dependent reduction of 5-HMF (10 mM) was measured in a similar fashion.
Additional compounds (ethanol, glycerol, n-butanol, 2-propanol, methanol, acetoin, diacetyl, methyglyoxal, dihydroxyacetone, acetaldehyde, and 1,3-propandiol) were tested as potential substrates for UcpA using appropriate cofactors.

LY180(pTrc99A) = experiment: Furfural toxicity / MIC in tube cultures, vector control; assay type: cell-based, Escherichia coli
Experimental: (§1) Furfural toxicity was measured in tube cultures (13 mm by 100 mm) containing 4 ml of AM1 medium with 50 g liter^−1 xylose, 12.5 mg liter^−1 ampicillin, furfural, and other supplements as indicated (Miller et al., 2009a, b). Cultures were inoculated to an initial density of 22 mg dcw liter^−1. IPTG (0.1 mM) was included for fucO induction. Cell mass was measured at 550 nm after incubation for 48 h (37° C.). For cysteine supplement experiment, the culture condition was the same but included 0.1 mM cysteine as an amendment.
(§2) Derivatives of LY180 containing these plasmids were tested for furfural tolerance with (0.1 mM IPTG) and without IPTG induction using an MIC assay (Miller et al., 2009a; Miller et al., 2010; Wang et al., 2011b).

LY180 (pLOI4856) = experiment: Furfural toxicity / MIC in tube cultures, ucpA plasmid; assay type: cell-based, Escherichia coli
Experimental: as §1, §2

YqhD = YqhD (Escherichia coli, UniProt Q46856); settings: read-out: Km for NADPH; cited from earlier work
[1] = Escherichia coli, read-out: MIC for 5-HMF

T1 sequence (P37440 whole entry T153Q): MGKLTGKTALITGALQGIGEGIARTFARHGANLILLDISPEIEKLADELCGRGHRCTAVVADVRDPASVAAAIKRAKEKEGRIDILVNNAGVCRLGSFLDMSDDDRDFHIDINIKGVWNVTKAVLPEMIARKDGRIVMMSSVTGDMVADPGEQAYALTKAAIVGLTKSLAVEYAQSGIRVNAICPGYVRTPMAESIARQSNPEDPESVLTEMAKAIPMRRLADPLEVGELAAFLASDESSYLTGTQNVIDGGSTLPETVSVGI
YqhD, sequence (Q46856 whole entry): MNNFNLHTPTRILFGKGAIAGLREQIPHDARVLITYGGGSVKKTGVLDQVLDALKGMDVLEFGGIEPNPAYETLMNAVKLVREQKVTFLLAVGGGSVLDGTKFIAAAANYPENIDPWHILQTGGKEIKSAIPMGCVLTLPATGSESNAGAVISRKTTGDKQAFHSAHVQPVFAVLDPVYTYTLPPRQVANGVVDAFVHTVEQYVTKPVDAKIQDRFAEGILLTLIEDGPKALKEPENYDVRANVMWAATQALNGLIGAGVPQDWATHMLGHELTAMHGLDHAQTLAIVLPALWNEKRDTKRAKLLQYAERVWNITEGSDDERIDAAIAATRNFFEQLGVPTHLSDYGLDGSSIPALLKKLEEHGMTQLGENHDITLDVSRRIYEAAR

OCCCO [1,3-propandiol]
Metabolism as substrate for UcpA (UcpA): none appeared to be metabolized

CC(C)O [2-propanol]
Metabolism as substrate for UcpA (UcpA): none appeared to be metabolized

O=Cc1ccc(CO)o1 [5-HMF, 5-hydroxymethylfurfural]
MIC (LY180(pTrc99A); [1]): 16 mM (≈ 2020 µg/mL) | MIC (LY180 (pLOI4856); [1]): 20 mM (≈ 2520 µg/mL)

N[C@@H](CS)C(=O)O [L-cysteine, reference compound]
Effect of L-cysteine supplement on growth in the presence of furfural (LY180(pTrc99A); 0.1 mM L-cysteine, 10 mM furfural): cell growth was increased | Effect of L-cysteine supplement on growth in the presence of furfural (LY180 (pLOI4856); 0.1 mM L-cysteine, 10 mM furfural, ucpA induced): did not alter the growth

CC=O [acetaldehyde]
Metabolism as substrate for UcpA (UcpA): none appeared to be metabolized

CC(=O)C(C)O (stereo not drawn) [acetoin]
Metabolism as substrate for UcpA (UcpA): none appeared to be metabolized

CC(=O)C(C)=O [diacetyl]
Metabolism as substrate for UcpA (UcpA): none appeared to be metabolized

CCO [ethanol]
Metabolism as substrate for UcpA (UcpA): none appeared to be metabolized

OCC(O)CO [glycerol]
Metabolism as substrate for UcpA (UcpA): none appeared to be metabolized

CO [methanol]
Metabolism as substrate for UcpA (UcpA): none appeared to be metabolized

CCCCO [n-butanol]
Metabolism as substrate for UcpA (UcpA): none appeared to be metabolized

NADPH
Km (YqhD): 0.008 mM

methyglyoxal
Metabolism as substrate for UcpA (UcpA): none appeared to be metabolized

From patent US9347077B2, “Over-expression of a putative oxidoreductase (UcpA) for increasing furfural or 5-hydroxymethylfurfural tolerance” (UNIVERSITY OF FLORIDA RESEARCH FOUNDATION, INCORPORATED, priority 2011, dated 2016)
